Read-outs that look alike come from different tables or passages of the source.
Molecular target: T1, CIB1 and αIIb interaction (CIB1-GST : F-αIIb peptide) (Homo sapiens, UniProt Q99828)
T1 construct: made in house; host or cells: BL-21 plus RIL cells (E. coli)
T1 sequence (Q99828 1-191): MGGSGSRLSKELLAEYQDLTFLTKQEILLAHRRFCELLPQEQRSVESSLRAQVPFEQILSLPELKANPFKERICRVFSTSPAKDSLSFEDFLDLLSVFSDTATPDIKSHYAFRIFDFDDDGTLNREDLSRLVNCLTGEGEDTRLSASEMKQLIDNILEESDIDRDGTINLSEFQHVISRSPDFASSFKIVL
Experiment: FP assay, 1536-well qHTS format (primary and confirmatory screen)
Assay type: binding
Conditions: for Efficacy (%): negative = inhibition; for Curve Class: negative sign = inhibitory curve; for IC50: read-out: IC50

[1] = qHTS primary screen hits, Table S2
[2] = qHTS primary screen hits, Table S2, several classes where COUNT > 1
[3] = qHTS primary screen of LOPAC/NPACT libraries
[4] = qHTS primary screen hits, Table S2, NPACT library

Row | Efficacy (%) [1] | IC50 [1] | Efficacy (%) [3] | Curve Class [3] | IC50 [3] | Curve Class [4] | SMILES | Curve Class [2] | Curve Class [1]
1 | -17% | 50.1 µM | – | – | – | – | Cl.NS(=O)(=O)c1cccc(Cc2c(-c3ccc(F)c(F)c3)nn(-c3nc(C(=O)O)cs3)c2O)c1 [NCGC00356269-01] | -2.4 | –
2 | -29% | 56.2 µM | – | – | – | – | CCOC(=O)c1csc(-n2nc(-c3ccc(F)c(F)c3)cc2O)n1 [NCGC00356457-01] | – | -2.4
3 | -41% | 44.7 µM | – | – | – | – | NS(=O)(=O)c1ccc(Cc2cn(-c3nc(C(=O)O)cs3)c3ncccc23)cc1 [NCGC00356703-01] | -2.2 | –
4 | – | – | -22% | -1.4 | 22.4 µM | – | COc1ccc(S(=O)(=O)Nc2nc(-c3cccc([N+](=O)[O-])c3)cs2)cc1OC [NCGC00370730-07] | – | –
5 | – | – | -104% | -2.1 | 17.8 µM | – | CC1=C(C(=O)OC2CCCCC2)C(c2ccc([N+](=O)[O-])cc2)C2=C(CC(C)(C)CC2=O)N1 (stereo not drawn) [NCGC00370923-11] | – | –
6 | – | – | -32% | -2.4 | 44.7 µM | – | O=C(O)CCc1ccc(NCc2cccc3c2CCCN3CCOc2ccccc2)cc1F [NCGC00370998-03] | – | –
7 | -35% | 44.7 µM | – | – | – | – | O=C(O)c1csc(-n2cc(Cc3ccc(CO)cc3)c(-c3cccc(-c4ccccc4)c3)n2)n1 [NCGC00371885-01] | -2.4 | –
8 | – | – | -17% | -1.4 | 10 µM | – | Cn1cc(-c2cnc3ccc4ccc(CS(=O)(=O)NCc5ccccn5)cc4c(=O)c3c2)cn1 [NCGC00378567-02] | – | –
9 | -29% | 49.1 µM | – | – | – | – | CCOc1cc(C(C)(C)C)ccc1C1=N[C@@](C)(c2ccc(Cl)cc2)[C@@](C)(c2ccc(Cl)cc2)N1C(=O)N1CCN(CC(=O)N2CCOCC2)CC1 [NCGC00378588-02] | -2.4 | –
10 | – | – | -24% | -1.4 | 6.3 µM | – | CNC(=O)c1ccccc1Nc1cc(Nc2ccc(N3CCOCC3)cc2OC)ncc1C(F)(F)F [NCGC00378620-04] | – | –
11 | – | – | -25% | -2.4 | 56.2 µM | – | Cc1cc(-c2cc(O)ccc2Cl)cc2nnc(Nc3ccc(OCCN4CCCC4)cc3)nc12.Cl [NCGC00378690-01] | – | –
12 | – | – | -28% | -2.4 | 56.2 µM | – | Cc1cccc(C)c1-n1c(=O)c2cnc(Nc3ccc(N4CCN(C)CC4)cc3)nc2n2c3ccccc3nc12 [NCGC00378811-02] | – | –
13 | – | – | -25% | -2.4 | 56.2 µM | – | CCOc1cc(C(=O)N2CCC(N3CCN(C)CC3)CC2)ccc1Nc1ncc2c(n1)N(C1CCCC1)c1ccccc1C(=O)N2C [NCGC00378965-03] | – | –
14 | – | – | -32% | -2.4 | 79.4 µM | – | CCCC1(CCC)CCC2(CCN(CCCN(CC)CC)C2)CC1.Cl [NCGC00379163-01] | – | –
15 | – | – | -28% | -2.4 | 56.2 µM | – | Cc1cc(O)cc(Oc2cc(C)c(C(=O)O)c(O)c2)c1 [NCGC00380115-01] | – | –
16 | – | – | -24% | -2.4 | 39.8 µM | – | C=C1CCC2C(C)(C)CC(O)CC2(C)C1CCC(C)CCOC(=O)CCC(=O)O (stereo not drawn) [NCGC00380160-01] | – | –
17 | – | – | -23% | -1.4 | 4.5 µM | – | C=C1C(=O)O[C@@H]2C/C(C)=C\C(=O)/C=C(\C)[C@@H](OC(=O)/C(C)=C\C)[C@H](O)[C@@H]12 [NCGC00380290-01] | – | –
18 | – | – | -28% | -2.4 | 44.7 µM | – | CC1(CO)CCCC2(C)C1C(OC(=O)c1ccccc1)C=C1C(=O)OCC12O (stereo not drawn) [NCGC00380390-01] | – | –

Row | Efficacy (%) [1] | IC50 [1] | Efficacy (%) [3] | Curve Class [3] | IC50 [3] | Curve Class [4] | SMILES | Curve Class [2] | Curve Class [1]
19 | -17% | 28.2 µM | – | – | – | -1.4 | C=C(C)C(=O)OC1CC2(C)OC(=CC2=O)C(=C)CC2OC(=O)C(COC)C12 (stereo not drawn) [NCGC00380534-01] | – | –
20 | -57% | 31.6 µM | – | – | – | -2.2 | CC1OC2OC(=O)C3(C)CC4C5(CO5)C5=CC(=O)OC(C)(C)C5=CC(=O)C4(C)C(C1=O)C23 (stereo not drawn) [NCGC00380663-01] | – | –
21 | – | – | -20% | -1.4 | 8.9 µM | – | O=C(/C=C/c1ccccc1)OC[C@H]1O[C@@H](OC(=O)c2cc(O)c(O)c(O)c2)[C@H](O)[C@@H](O)[C@@H]1O [NCGC00380690-01] | – | –
22 | – | – | -23% | -2.4 | 50.1 µM | – | Cc1c(O)cc2c(c1O)COC1(O)CCCOC21 (stereo not drawn) [NCGC00380856-01] | – | –
23 | – | – | -21% | -1.4 | 14.1 µM | – | C=C1CC(=O)C2OC2(C)CC2OC(=O)C(=C)C2C(O)C1OC(=O)/C(C)=C\C (stereo not drawn) [NCGC00381057-01] | – | –
24 | – | – | -22% | -1.4 | 8.9 µM | – | C=C(C)C(=O)OC1CC2(C)OC(=CC2=O)C(=C)CC2OC(=O)C(=C)C12 (stereo not drawn) [NCGC00381113-01] | – | –
25 | – | – | -28% | -1.4 | 1.6 µM | – | C=C1C(=O)O[C@@H]2C(OC(=O)/C(C)=C\C)/C(C)=C\C(=O)/C=C(\C)C[C@H](O)[C@@H]12 (stereo partly drawn) [NCGC00381208-01] | – | –
26 | – | – | -22% | -2.4 | 56.2 µM | – | CCC(C)CC(=O)OC1C(=O)C(CO)=CC(O)C1C(C)C (stereo not drawn) [NCGC00381331-01] | – | –
27 | – | – | -22% | -2.4 | 25.1 µM | – | COC(=O)CC1OC(C)C2=C(O)c3c(O)cccc3C(=O)C23OC13 (stereo not drawn) [NCGC00381362-01] | – | –
28 | – | – | -25% | -1.4 | 11.2 µM | – | C=C1CC2OC(=O)C(=C)C2C(OC(=O)/C(C)=C\C)CC2(C)OC1=CC2=O (stereo not drawn) [NCGC00384607-01] | – | –
29 | – | – | -20% | -1.4 | 17.8 µM | – | C=C1CCC2C(C)(COC(C)=O)CCCC2(C)C1CCC(C)CC(=O)O (stereo not drawn) [NCGC00384884-01] | – | –
30 | -66% | 22.4 µM | – | – | – | – | COc1ccc(C(=O)O[C@H]2C=COC=C3C=C4C(=O)N(C)C(=S)C(=O)N4[C@@H]32)cc1Oc1cc(C=O)ccc1O [NCGC00384899-01] | – | -2.2
31 | – | – | -23% | -2.4 | 31.6 µM | – | CC1CC2(O)OC(=O)C3=C2C(CCC3)[C@@]12C[C@@H](c1ccoc1)OC2=O (stereo partly drawn) [NCGC00385045-01] | – | –
32 | – | – | -18% | -2.4 | 31.6 µM | – | COc1cc(/C=C/c2ccccc2)c(C(=O)O)c(O)c1CC=C(C)C [NCGC00385333-01] | – | –
33 | – | – | -145% | -2.1 | 28.2 µM | – | CC(NC(=O)CC(=O)O)c1nc2ccccc2c(=O)[nH]1 (stereo not drawn) [NCGC00385407-01] | – | –
34 | – | – | -28% | -2.4 | 56.2 µM | – | COc1c(C)c(OCC(O)C(C)(C)O)cc2c1CNC2=O (stereo not drawn) [NCGC00385487-01] | – | –
35 | – | – | -31% | -2.4 | 39.8 µM | – | O=C(O)c1cc(O)c2cccc(O)c2c1O[C@@H]1O[C@H](CO)[C@@H](O)[C@H](O)[C@H]1O [NCGC00385595-01] | – | –
36 | – | – | -30% | -2.4 | 50.1 µM | – | C=C1C(=O)O[C@@H]2C3=C(C)CCC[C@]3(C)CC[C@@]12O [NCGC00385722-01] | – | –

Row | SMILES | Efficacy (%) [1] | IC50 [1] | Efficacy (%) [3] | Curve Class [3] | IC50 [3] | Curve Class [4] | Curve Class [2] | Curve Class [1]
37 | CC(C)(C)OC(=O)c1csc(-n2nc(-c3ccc(F)c(F)c3)c(-c3ccccc3)c2O)n1.O=C(O)C(F)(F)F [NCGC00356364-01] | -24% | 56.2 µM | – | – | – | – | – | -2.4
38 | Nc1ccc2nc3c(=O)n(CCc4ccccc4)c(=O)[nH]c3nc2c1.O=C(O)C(F)(F)F [NCGC00356558-01] | -62% | 5 µM | – | – | – | – | -1.2 | –
39 | CNS(=O)(=O)c1ccc(Cc2c(-c3cccc(-c4ccccc4)c3)nn(-c3nc(C(=O)O)cs3)c2O)cc1.O=C(O)C(F)(F)F [NCGC00356637-01] | -55% | 79.4 µM | – | – | – | – | -3 | –
40 | N#CCc1cc(-c2ccc(F)c(F)c2)nn1-c1nc(C(=O)O)cs1.O=C(O)C(F)(F)F [NCGC00356771-02] | -16% | 50.1 µM | – | – | – | – | – | -2.4
41 | NS(=O)(=O)c1ccc(NCc2cn(-c3nc(C(=O)O)cs3)nc2-c2ccccc2)cc1.O=C(O)C(F)(F)F [NCGC00357525-01] | -25% | 56.2 µM | – | – | – | – | -2.4 | –
42 | N#CSc1cc(SC#N)c(N)nc1N [NCGC00371134-01] | – | – | -31% | -2.4 | 14.1 µM | – | – | –
43 | Nc1c(C(=O)Nc2ccc(F)cc2)sc2nc(-c3cccs3)ccc12.O=C(O)C(F)(F)F [NCGC00371815-01] | -31% | 79.4 µM | – | – | – | – | -2.4 | –
44 | COc1cccc2nc3c(C(=O)NCCN(C)C)cccc3cc12.O=C(O)C(F)(F)F [NCGC00371843-01] | -37% | 50.1 µM | – | – | – | – | -2.4 | –
45 | CO[C@@H](Cc1ccc(OCCc2nc(-c3ccccc3)oc2C)c2ccsc12)C(=O)O [NCGC00378922-01] | – | – | -15% | -1.4 | 20 µM | – | – | –
46 | C=C1C2(C)CC3C(C)(O)C4=CC(=O)OC(C)(C)C4=CCC3(C)C13C(=O)OC(C)C3(O)C2=O (stereo not drawn) [NCGC00380442-01] | – | – | -28% | -2.4 | 35.5 µM | – | – | –
47 | CCC(C)(OC(C)=O)C(=O)O[C@H]1[C@H](OC(C)=O)C[C@@H]2[C@@](C)([C@@H]3C[C@H]4C=CO[C@H]4O3)[C@H](C)C[C@H](OC(C)=O)[C@@]2(COC(C)=O)[C@@]12CO2 (stereo partly drawn) [NCGC00380906-01] | – | – | -20% | -2.4 | 10 µM | – | – | –

From PMC11249646, “Small-Molecule Disruptors of the Interaction between Calcium- and Integrin-Binding Protein 1 and Integrin αIIbβ3 as Novel Antiplatelet Agents” (ACS Pharmacology & Translational Science, 2024)
